Each structure is given as a SMILES string.

A short description of data set [1]: Stability of esylate salt in water and aqueous ethanol (dissociation to free base). The following applies: in water and aqueous ethanol solutions. It is filed as physicochemical. An excerpt:
Spontaneous precipitation from the aqueous solution afforded Compound 6 as free base; a new crystalline XRPD pattern was observed (See FIG. 38). The free base of Compound 6 was partially precipitated upon water addition to the ethanol solution and was further recovered by evaporation of the ethanol: water solution. These observations indicate the esylate salt is unstable in water and aqueous ethanol due to dissociation.
A new crystalline XRPD pattern designated as Form A of the free base of Compound 6 was observed from precipitation in ethanol with water (antisolvent) when amorphous ethanesulfonate salt of Compound 6 was used. (FIG. 38, top pattern). Summary of the data obtained for Form A of the free base is shown below in Table 16. […] The Compound 6 free base was recovered by further evaporation of the aqueous ethanol solution. […] These observations indicate the esylate salt is unstable due to dissociation in water and aqueous ethanol solutions.

The nature of data set [2]: Solubility in ethanol observed during salt formation. It is filed as physicochemical. As to the method:
To a 2-L Morton flask equipped with a heating mantle, thermocouple, condenser and mechanical stirrer was charged (4-fluorophenyl)(4-((5-methyl-1H-pyrazol-3-yl)amino)quinazolin-2-yl)methanol free base (40.20 g, 115 mmol, 1.0 equiv.). Ethanol (1.6 L) was added and the suspension was stirred and heated to reflux (78° C., internal temperature) until dissolution of the suspension was observed. Ethanesulfonic acid (9.4 mL, 115 mmol, 1.0 equiv.) was charged to the resulting yellow solution. Reflux was maintained for 1 hour, then heating was discontinued and the reaction was allowed to cool to room temperature and stirred overnight. Stirring was stopped and the solids were allowed to settle. The reaction was filtered and the initial isolated product (R)-(4-fluorophenyl)(4-((5-methyl-1H-pyrazol-3-yl)amino)quinazolin-2-yl)methanol dried in a vacuum oven (45° C., ˜20 torr) for 3 days to produce 29.69 g, 65 mmol, 56% yield. The supernatant was concentrated and a second crop of the product was obtained and dried as the first to produce 10.52 g, 23 mmol, 20% yield.
The combined yield for the two crops was 76%. […] Higher yields of salt can be obtained by reducing the amount of ethanol. […]

A short description of data set [3]: Solubility/crystallization screen of Compound 6 salts (20 mg salt, solvent, heating, then standing).
Protocol: The resulting solids were analyzed by DSC and portions of each salt were tested for solubility and crystallization from the following solvents:
20 mg of salt was charged to a 1-dram screw-top vial. Solvent (enough to cover the solids) was added, the vial was capped and heated (heat gun) to aid dissolution. If no, or partial dissolution was observed, the vial was allowed to cool, additional solvent was added and the process repeated. The solubility was characterized as follows: Soluble (sol): the solids dissolved upon heating, Sparingly soluble (sp): the solids dissolved upon heating after two or more additions of solvent or Insoluble (I): complete dissolution could not be achieved. […] The vials containing solids were filtered and analyzed by DSC.
Setting [4] is: standing 1 h after cooling to room temperature.
[5] abbreviates: standing 4 d after cooling to room temperature.

Turning to `CCS(=O)(=O)O` [Ethanesulfonic acid], the “Stability of the salt (dissociation to free base)” value in data set [1] is reported as “unstable”. In addition, the “Solubility in ethanol compared to the free base” value in data set [2] is recorded as “higher solubility in ethanol”. Also, in data set [3] (Heating), the “Solubility in EtOH” value was “sol”, the “Solubility in H2O” value is “sol”, the “Solubility in IPA” value was “sol” and the “Solubility in MeOH” value is “sol”. Moreover, in data set [3] (setting [4]), the “Solubility/crystallization in EtOH” value is listed as “cryst”, the “Solubility/crystallization in H2O” value is reported as “gels”, the “Solubility/crystallization in IPA” value was “cryst” and the “Solubility/crystallization in MeOH” value is “sol”. Further, in data set [3] (setting [5]), the “Solubility/crystallization in EtOH” value is “cryst”, the “Solubility/crystallization in IPA” value is recorded as “cryst” and the “Solubility/crystallization in MeOH” value is on record as “sol”.

These data come from patent US9611253B2, “Solid forms comprising optically active pyrazolylaminoquinazoline, compositions thereof, and uses therewith” (AMBIT BIOSCIENCES CORPORATION, priority 2012, dated 2017).
